Measured values reported in ChEMBL document CHEMBL1201862, “PubChem BioAssay data set” (2004).
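Cultured in 96-well plates, cells were exposed to test compound for 48 hours across five concentrations. GI50 = concentration required for 50% inhibition of growth.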 The source made the active and inactive calls. No stated cut-off is given here; in the data, active = GI50 up to about 1.1 µM and inactive = higher.

Columns and labels:
Assay in all cases: NCI tumour cell line growth inhibition, 48 h
A498 = tested on: A498
A549 = tested on: A549
COLO 205 = tested on: COLO 205
EKVX = tested on: EKVX
HCC 2998 = tested on: HCC 2998
HCT-116 = tested on: HCT-116
HOP-92 = tested on: HOP-92
Hs-578T = tested on: Hs-578T
MCF7 = tested on: MCF7
MDA-MB-231 = tested on: MDA-MB-231
NCI-H23 = tested on: NCI-H23
OVCAR-3 = tested on: OVCAR-3
OVCAR-5 = tested on: OVCAR-5
RXF 393 = tested on: RXF 393
SF-268 = tested on: SF-268
SF-539 = tested on: SF-539
SK-MEL-28 = tested on: SK-MEL-28
SK-MEL-2 = tested on: SK-MEL-2
SN12C = tested on: SN12C
SR = tested on: SR

Measured: GI50

Cc1ccc(C(=O)Nc2ccc(CP(=O)(O)O)cc2)cc1NC(=O)c1cccc(N)c1
inactive: A498 > 100 µM | A549 > 100 µM | COLO 205 > 100 µM | EKVX > 100 µM | HCC 2998 > 100 µM | HCT-116 > 100 µM | HOP-92 > 100 µM | Hs-578T > 100 µM | MCF7 > 100 µM | MDA-MB-231 > 100 µM | NCI-H23 > 100 µM | OVCAR-3 > 100 µM | OVCAR-5 > 100 µM | RXF 393 > 100 µM | SF-268 > 100 µM | SF-539 > 100 µM | SK-MEL-28 > 100 µM | SK-MEL-2 > 100 µM | SN12C > 100 µM | SR > 100 µM

C=C(Cl)/C(=C\Cl)CCC(Br)C(C)C (stereo not given)
inactive: A498 > 100 µM | A549 > 100 µM | COLO 205 > 100 µM | EKVX > 100 µM | HCC 2998 > 100 µM | HCT-116 > 100 µM | HOP-92 > 100 µM | Hs-578T > 100 µM | MCF7 48.9 µM | MDA-MB-231 24.9 µM | NCI-H23 > 100 µM | OVCAR-3 > 100 µM | OVCAR-5 > 100 µM | RXF 393 77.3 µM | SF-268 > 100 µM | SF-539 > 100 µM | SK-MEL-28 78.5 µM | SK-MEL-2 > 100 µM | SN12C > 100 µM | SR > 100 µM

COc1cc(/C=C2/SC(c3ccccc3)N(c3ccccc3)C2=O)cc(OC)c1OC (stereo not given)
inactive: A498 > 100 µM | A549 > 100 µM | COLO 205 36.9 µM | EKVX 51.6 µM | HCC 2998 > 100 µM | HCT-116 15.7 µM | HOP-92 > 100 µM | Hs-578T > 100 µM | MCF7 37.8 µM | MDA-MB-231 > 100 µM | NCI-H23 42.5 µM | OVCAR-3 65.6 µM | OVCAR-5 > 100 µM | RXF 393 23.7 µM | SF-268 > 100 µM | SF-539 > 100 µM | SK-MEL-28 > 100 µM | SK-MEL-2 > 100 µM | SN12C > 100 µM | SR 14 µM

COc1ccc(C2C(C(=O)c3ccccc3)=C(O)C(O)(CC(=O)c3ccccc3)N2c2ccc(OC)cc2)cc1 (stereo not given)
inactive: A498 44.6 µM | A549 22.4 µM | COLO 205 17.6 µM | EKVX 24.6 µM | HCC 2998 11.1 µM | HCT-116 9.29 µM | HOP-92 4.2 µM | Hs-578T 28.6 µM | MCF7 11.9 µM | MDA-MB-231 19.2 µM | NCI-H23 21.1 µM | OVCAR-3 7.67 µM | OVCAR-5 23.6 µM | RXF 393 9.38 µM | SF-268 33.7 µM | SF-539 24.4 µM | SK-MEL-28 28.6 µM | SK-MEL-2 16.1 µM | SN12C 21.6 µM | SR 4.66 µM
